Assay results published in patent publication US9145351B2, “Azole derivatives, methods for producing the same, intermediate thereof, agro-horticultural agents” (KUREHA CORPORATION, priority 2009, dated 2015).

Tested on: Puccinia recondita
Assay: Efficacy test against wheat brown rust, 2 mg/L (Experimental Example 8)
Format: in vivo
Design: key: 0: No onset; 0.5: Less than 1%; 1% or higher and less than 5%; 2: 5% or higher and less than 10%; 10% or higher and less than 30%; 4: 30% or higher and less than 50%; 50% or higher
Settings: sprayed at 1,000 L/ha, concentration printed 0.02 mg/L, 9 to 14 days after inoculation
Description: Onto a wheat plant (variety: […] The sprayed leaves were air-dried, and inoculated with spore suspension of Puccinia recondita (adjusted at 200 spores/vision, […] was added at 60 ppm) by spraying, and kept at 25 degrees C. and a high humidity for 48 hours. Thereafter, the plant was kept in a greenhouse. Nine to 14 days after inoculation, the wheat brown rust lesion degree was investigated, and the protective value was calculated by the following equation. Protective value (%)=(1-lesion degree in sprayed plot/lesion degree in unsprayed plot)×100

Compound: C[C@]1(CCl)CC[C@@H](Cc2ccc(F)cc2)[C@]1(O)Cn1cncn1 (racemic) [Compound I-77, (1RS,2SR,5SR)-2-chloromethyl-5-(4-fluorobenzyl)-2-methyl-1-(1H-1,2,4-triazol-1-ylmethyl)cyclopentanol]
- degree (wheat brown rust lesion degree): 0
